Assay results: ChEMBL document CHEMBL5532735, “Novel Furopyridine and Furopyrimidine Compounds as PI4K Inhibitors for Treating Malaria and Viral Infection” (ACS Med Chem Lett, 2024)

Test system: Plasmodium falciparum
Experiment: Antimalarial activity against Plasmodium falciparum assessed as inhibition of parasite growth by [3H]hypoxanthine incorporation assay
Assay type: functional, organism-based

In the case of `Cn1cc(-c2cc3nccc(-c4cccc(S(C)(=O)=O)c4)c3o2)ccc1=O`, the IC50 is reported as less than 0.01 µM.

For `CC(C)(O)c1cc(-c2ccnc3cc(-c4ccc(S(C)(=O)=O)cc4)oc23)ccn1`, the IC50 was less than 0.01 µM.

`CS(=O)(=O)c1ccc(-c2cc3nccc(-c4cccc(C5(O)CCC5)c4)c3o2)cc1` was tested, and the IC50 was less than 0.01 µM.

Compound `CC(C)(O)c1cccc(-c2ncnc3cc(-c4ccc(S(C)(=O)=O)cc4)oc23)c1F` has an IC50 of less than 0.01 µM.

In the case of `CC(C)(O)c1cccc(-c2ncnc3cc(-c4ccc(S(C)(=N)=O)cc4)oc23)c1F` (stereo unspecified), the IC50 is reported as less than 0.01 µM.

Work on `CS(=O)(=O)c1ccc(-c2cc3nccc(-c4cccc(C5(O)CCC(F)(F)CC5)c4)c3o2)cn1` yielded an IC50 of less than 0.01 µM.
